The subject of this experiment is PKC mediated IL-2 production. The experiment is described as follows: IL-2 ELISA, human primary T cell, anti CD3+CD28+. In kind it is cell-based. To be noted: T-cell, human primary T cells stimulated with αCD3 and αCD28, 24 hours. The essentials: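 IL-2 was quantified by ELISA in 24 h supernatants from primary human T cells given a 1 h compound pre-treatment at 37° C. These cells had been expanded from blood mononuclear cells on αCD3/αCD28 with IL-2, and the IL-2 was removed by washing. Stimulation used plate-bound αCD3 ([…]) plus αCD28 (5 μg/ml); the counter assay used PMA (0.5 ng/ml) with ionomycin (0.1 uM) instead.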
On the technique in general: In an ELISA, binding on a coated surface is turned into a signal by an enzyme label.

Molecules are shown by their SMILES.

Consider `COc1cc(Nc2ncc(Cl)c(N[C@@H]3C[C@@H]4CCCN4C(C)(C)C3)n2)cc(OC)c1OC` [Compound 183, 5-chloro-N4-((7R,8aS)-5,5-dimethyloctahydroindolizin-7-yl)-N2-(3,4,5-trimethoxyphenyl)pyrimidine-2,4-diamine], for which the EC50 (usually the concentration giving half of the maximal effect) (Homo sapiens, 24 h) was 1 to 10 µM. Turning to `CCOC(=O)C(C)Oc1cc(F)c(Nc2ncc(F)c(N[C@@H]3C[C@@H]4CCCN4C(C)(C)C3)n2)cc1-n1nnn(C)c1=O` (stereo partly drawn) [Compound 184, ethyl 2-(4-((4-(((7R,8aS)-5,5-dimethyloctahydroindolizin-7-yl)amino)-5-fluoropyrimidin-2-yl)amino)-5-fluoro-2-(4-methyl-5-oxo-4,5-dihydro-1H-tetrazol-1-yl)phenoxy)propanoate], for the setting “Homo sapiens, 24 h”, the EC50 fell in the range of 0.1 to 0.5 µM. Compound `Cn1nnn(-c2cc(Nc3ncc(F)c(N[C@@H]4C[C@@H]5CCCN5C(C)(C)C4)n3)c(F)cc2OC2CCOC2=O)c1=O` (stereo partly drawn) [Compound 185, 1-(5-((4-(((7R,8aS)-5,5-dimethyloctahydroindolizin-7-yl)amino)-5-fluoropyrimidin-2-yl)amino)-4-fluoro-2-((2-oxotetrahydrofuran-3-yl)oxy)phenyl)-4-methyl-1,4-dihydro-5H-tetrazol-5-one] yielded an EC50 (Homo sapiens, 24 h) of over 10 µM. Same read-out and setting: then `Cn1nnn(-c2cc(Nc3ncc(F)c(N[C@@H]4C[C@@H]5CCCN5C(C)(C)C4)n3)c(F)cc2OC[C@H](O)CO)c1=O` [Compound 188, 1-(2-((R)-2,3-dihydroxypropoxy)-5-((4-(((7R,8aS)-5,5-dimethyloctahydroindolizin-7-yl)amino)-5-fluoropyrimidin-2-yl)amino)-4-fluorophenyl)-4-methyl-1,4-dihydro-5H-tetrazol-5-one], with 0.5 to 1 µM; and `CC1(C)C[C@H](Nc2nc(Nc3ccc(OCCO)c(C#N)c3)ncc2F)C[C@@H]2CCCN21` [Compound 189, 5-((4-(((7R,8aS)-5,5-dimethyloctahydroindolizin-7-yl)amino)-5-fluoropyrimidin-2-yl)amino)-2-(2-hydroxyethoxy)benzonitrile], with 0.1 to 0.5 µM; and `COCCOCCOc1ccc(Nc2ncc(F)c(N[C@@H]3C[C@@H]4CCCN4C(C)(C)C3)n2)cc1C#N` [Compound 190, 5-((4-(((7R,8aS)-5,5-dimethyloctahydroindolizin-7-yl)amino)-5-fluoropyrimidin-2-yl)amino)-2-(2-(2-methoxyethoxy)ethoxy)benzonitrile], with 0.1 to 0.5 µM. Still for that read-out and setting: then `CC(=O)O[C@H]1[C@H](OC(C)=O)C(Oc2cc(F)c(Nc3ncc(F)c(N[C@@H]4C[C@@H]5CCCN5C(C)(C)C4)n3)cc2-n2nnn(C)c2=O)OC[C@H]1OC(C)=O` (stereo partly drawn) [Compound 191, (3S,4R,5R)-2-(4-((4-(((7R,8aS)-5,5-dimethyloctahydroindolizin-7-yl)amino)-5-fluoropyrimidin-2-yl)amino)-5-fluoro-2-(4-methyl-5-oxo-4,5-dihydro-1H-tetrazol-1-yl)phenoxy)tetrahydro-2H-pyran-3,4,5-triyl triacetate], with 1 to 10 µM; and `CN(C)CCOc1cc(F)c(Nc2ncc(F)c(N[C@@H]3C[C@@H]4CCCN4C(C)(C)C3)n2)cc1-n1nnn(C)c1=O` [Compound 192, 1-(2-(2-(dimethylamino)ethoxy)-5-((4-(((7R,8aS)-5,5-dimethyloctahydroindolizin-7-yl)amino)-5-fluoropyrimidin-2-yl)amino)-4-fluorophenyl)-4-methyl-1,4-dihydro-5H-tetrazol-5-one], with 0.1 to 0.5 µM. On the same count and under the same terms, then `CN(C)CCOc1cc(F)c(N(CCN(C)C)c2ncc(F)c(N[C@@H]3C[C@@H]4CCCN4C(C)(C)C3)n2)cc1-n1nnn(C)c1=O` [Compound 193, 1-(2-(2-(dimethylamino)ethoxy)-5-((2-(dimethylamino)ethyl)(4-(((7R,8aS)-5,5-dimethyloctahydroindolizin-7-yl)amino)-5-fluoropyrimidin-2-yl)amino)-4-fluorophenyl)-4-methyl-1,4-dihydro-5H-tetrazol-5-one], with 0.1 to 0.5 µM; and `CCN(CC)CCOc1cc(F)c(Nc2ncc(F)c(N[C@@H]3C[C@@H]4CCCN4C(C)(C)C3)n2)cc1-n1nnn(C)c1=O` [Compound 194, 1-(2-(2-(diethylamino)ethoxy)-5-((4-(((7R,8aS)-5,5-dimethyloctahydroindolizin-7-yl)amino)-5-fluoropyrimidin-2-yl)amino)-4-fluorophenyl)-4-methyl-1,4-dihydro-5H-tetrazol-5-one], with 0.1 to 0.5 µM.

Turning to `Cn1nnn(-c2cc(Nc3ncc(F)c(N[C@@H]4C[C@@H]5CCCN5C(C)(C)C4)n3)c(F)cc2OCCN2CCOCC2)c1=O` [Compound 195, 1-(5-((4-(((7R,8aS)-5,5-dimethyloctahydroindolizin-7-yl)amino)-5-fluoropyrimidin-2-yl)amino)-4-fluoro-2-(2-morpholinoethoxy)phenyl)-4-methyl-1,4-dihydro-5H-tetrazol-5-one], where the note is “Homo sapiens, 24 h”, the EC50 was in the range of 0.5 to 1 µM. Still for that read-out and setting: then `CC1(C)C[C@H](Nc2nc(Nc3ccc(O)c(-n4cnnn4)c3)ncc2F)C[C@@H]2CCCN21` [Compound 196, 4-((4-(((7R,8aS)-5,5-dimethyloctahydroindolizin-7-yl)amino)-5-fluoropyrimidin-2-yl)amino)-2-(1H-tetrazol-1-yl)phenol], with 0.1 to 0.5 µM; and `CC(=O)O[C@H]1[C@H](OC(C)=O)C(Oc2ccc(Nc3ncc(F)c(N[C@@H]4C[C@@H]5CCCN5C(C)(C)C4)n3)cc2C#N)OC[C@H]1OC(C)=O` (stereo partly drawn) [Compound 197, (3S,4R,5R)-2-(2-cyano-4-((4-(((7R,8aS)-5,5-dimethyloctahydroindolizin-7-yl)amino)-5-fluoropyrimidin-2-yl)amino)phenoxy)tetrahydro-2H-pyran-3,4,5-triyl triacetate], with 0.1 to 0.5 µM; and `COCCOCCOc1cc(F)c(Nc2ncc(F)c(N[C@@H]3C[C@@H]4CCCN4C(C)(C)C3)n2)cc1-n1nnn(C)c1=O` [Compound 198, 1-(5-((4-(((7R,8aS)-5,5-dimethyloctahydroindolizin-7-yl)amino)-5-fluoropyrimidin-2-yl)amino)-4-fluoro-2-(2-(2-methoxyethoxy)ethoxy)phenyl)-4-methyl-1,4-dihydro-5H-tetrazol-5-one], with 1 to 10 µM. Still for that read-out and setting: then `Cn1nnn(-c2cc(Nc3ncc(F)c(N[C@@H]4C[C@@H]5CCCN5C(C)(C)C4)n3)c(F)cc2OCC(O)CO)c1=O` (stereo partly drawn) [Compound 199, 1-(2-(2,3-dihydroxypropoxy)-5-((4-(((7R,8aS)-5,5-dimethyloctahydroindolizin-7-yl)amino)-5-fluoropyrimidin-2-yl)amino)-4-fluorophenyl)-4-methyl-1,4-dihydro-5H-tetrazol-5-one], with 0.5 to 1 µM. Compound `CC(O)COc1cc(F)c(Nc2ncc(F)c(N[C@@H]3C[C@@H]4CCCN4C(C)(C)C3)n2)cc1-n1nnn(C)c1=O` (stereo partly drawn) [Compound 200, 1-(5-((4-(((7R,8aS)-5,5-dimethyloctahydroindolizin-7-yl)amino)-5-fluoropyrimidin-2-yl)amino)-4-fluoro-2-(2-hydroxypropoxy)phenyl)-4-methyl-1,4-dihydro-5H-tetrazol-5-one] gave a concentration for a half-maximal effect (EC50) of under 0.1 µM.

As to `CC(O)COc1ccc(Nc2ncc(F)c(N[C@@H]3C[C@@H]4CCCN4C(C)(C)C3)n2)cc1C#N` (stereo partly drawn) [Compound 201, 5-((4-(((7R,8aS)-5,5-dimethyloctahydroindolizin-7-yl)amino)-5-fluoropyrimidin-2-yl)amino)-2-(2-hydroxypropoxy)benzonitrile], under “Homo sapiens, 24 h”, the EC50 lay in the range of 0.1 to 0.5 µM. On to `COCCOc1ccc(Nc2ncc(F)c(N[C@@H]3C[C@@H]4CCCN4C(C)(C)C3)n2)cc1-n1cnnn1` [Compound 202, N4-((7R,8aS)-5,5-dimethyloctahydroindolizin-7-yl)-5-fluoro-N2-(4-(2-methoxyethoxy)-3-(1H-tetrazol-1-yl)phenyl)pyrimidine-2,4-diamine], for which the EC50 (Homo sapiens, 24 h) was under 0.1 µM. On the same count and under the same terms, the result for `CC1(COc2ccc(Nc3ncc(F)c(N[C@@H]4C[C@@H]5CCCN5C(C)(C)C4)n3)cc2-n2cnnn2)COC1` [Compound 203, N4-((7R,8aS)-5,5-dimethyloctahydroindolizin-7-yl)-5-fluoro-N2-(4-((3-methyloxetan-3-yl)methoxy)-3-(1H-tetrazol-1-yl)phenyl)pyrimidine-2,4-diamine] reads under 0.1 µM; that for `CC1(C)C[C@H](Nc2nc(Nc3ccc(OCC4(CO)COC4)c(-n4cnnn4)c3)ncc2F)C[C@@H]2CCCN21` [Compound 204, (3-((4-((4-(((7R,8aS)-5,5-dimethyloctahydroindolizin-7-yl)amino)-5-fluoropyrimidin-2-yl)amino)-2-(1H-tetrazol-1-yl)phenoxy)methyl)oxetan-3-yl)methanol], 0.5 to 1 µM; that for `CC1(C)C[C@H](Nc2nc(Nc3ccc(OCCO)c(-n4cnnn4)c3)ncc2F)C[C@@H]2CCCN21` [Compound 205, 2-(4-((4-(((7R,8aS)-5,5-dimethyloctahydroindolizin-7-yl)amino)-5-fluoropyrimidin-2-yl)amino)-2-(1H-tetrazol-1-yl)phenoxy)ethan-1-ol], under 0.1 µM. For the compound `CC(O)COc1ccc(Nc2ncc(F)c(N[C@@H]3C[C@@H]4CCCN4C(C)(C)C3)n2)cc1-n1cnnn1` (stereo partly drawn) [Compound 206, 1-(4-((4-(((7R,8aS)-5,5-dimethyloctahydroindolizin-7-yl)amino)-5-fluoropyrimidin-2-yl)amino)-2-(1H-tetrazol-1-yl)phenoxy)propan-2-ol], the concentration for a half-maximal effect (EC50) (Homo sapiens, 24 h) is under 0.1 µM. Still for that read-out and setting: then `COCCOCCOc1ccc(Nc2ncc(F)c(N[C@@H]3C[C@@H]4CCCN4C(C)(C)C3)n2)cc1-n1cnnn1` [Compound 207, N4-((7R,8aS)-5,5-dimethyloctahydroindolizin-7-yl)-5-fluoro-N2-(4-(2-(2-methoxyethoxy)ethoxy)-3-(1H-tetrazol-1-yl)phenyl)pyrimidine-2,4-diamine], with under 0.1 µM; and `COc1cc(Nc2ncc(F)c(N[C@@H]3C[C@@H]4CCCN4C(C)(C)C3)n2)ccc1O` [Compound 208, 4-((4-(((7R,8aS)-5,5-dimethyloctahydroindolizin-7-yl)amino)-5-fluoropyrimidin-2-yl)amino)-2-methoxyphenol], with 1 to 10 µM.

The values above are taken from patent publication US9682976B2, “Protein kinase C inhibitors and uses thereof” (Rigel Pharmaceuticals, Inc., priority 2012, dated 2017).
